This is an account of results in patent publication US20120252896A1, “METHODS AND COMPOSITIONS FOR MODULATION OF T-CELLS VIA THE KYNURENINE PATHWAY” (priority 2009, published 2012).

For test [1], the system named is Th17 cells (CD4+ T cells under Th17 differentiating conditions; IL-17 production). Briefly: IL-17 production by differentiating Th17 cells in vitro (ELISA). In kind it is cell-based, mouse (C57BL/6). The following applies: Mus musculus.
Test [2] has as its system Th1 cells (IFNγ production). The test can be described thus: IFNγ production by differentiating Th1 cells in vitro (ELISA). In kind it is cell-based, mouse (C57BL/6). The following applies: Mus musculus.
The test system of test [3] is differentiating Th17 cells. Briefly: Inhibition of IL-17 production by CD4+ T cells under Th17 differentiating conditions (ELISA). The following applies: for IC50 Th17 (IL-17 production): differentiating Th17 cells in vitro, 6 days of culture, average ±S.E.; for inhibitory effect on IL-17 production: within the range of concentrations assayed. In kind it is cell-based, C57BL/6 mice.

The test system of test [4] is differentiating Th1 cells. The test can be described thus: Inhibition of IFNγ production during Th1 differentiation (ELISA). In kind it is cell-based, C57BL/6 mice. The following applies: differentiating Th1 cells in vitro, 6 days of culture, average ±S.E. The method, then: For comparison studies with Th1 cells, T cells were differentiated in the same in vitro conditions, with only anti-murine IL-4 neutralizing antibody, recombinant murine IL-2 (10 ng/ml, eBioscience) and recombinant murine IL-12p70 (20 ng/ml, BD Biosciences) and CD3/CD28 stimulation. The concentration of IFN in culture supernatants was measured by ELISA (BD Biosciences). L-kynurenine, 3′-hydroxy-DL-kynurenine, 3′-hydroxyanthranilic acid, anthranilic acid and quinolinic acid (Sigma) were dissolved in RPMI medium under agitation at 1 mM concentration and sterile filtered. Tryptophan metabolites were added individually or in combination, in twofold dilutions, to the differentiating medium of Th1 or Th17 cells for the 6 days of culture.

[5] abbreviates: 144 h, Table II, differentiating Th17 cells, 6 days, average ± S.E., read-out: IC50, IL-17 production, Th17.
The mark [6] stands for this setting: Th17 differentiating conditions, read-out: IC50, IL-17 production.
Setting [7] is: 144 h, Table II, differentiating Th1 cells, 6 days, average ± S.E., read-out: IC50, IFNγ production, Th1.

Where two headings read alike, the source gives them in different places.

For `Nc1c(O)cccc1C(=O)CC(N)C(=O)O` (racemic) [3′-Hydroxy-DL-kynurenine, 3′-hydroxy-DL-kynurenine], the IC50 in test [1] (setting [5]) was determined as 68.1 ± 1.4 µM; in test [1] (setting [6]) it was 68.1 ± 1.4 µM; in test [2] (setting [7]), 153.8 ± 1.1 µM.
With `Nc1c(O)cccc1C(=O)O` [3′-Hydroxyanthranilic acid, 3′-hydroxyanthranilic acid], the IC50 in test [1] (setting [5]) is 27.7 ± 3.7 µM; in test [1] (setting [6]) it was 27.7 ± 3.7 µM; in test [2] (setting [7]), 57.6 ± 1 µM; in test [2] (read-out: IC50, IFNγ production during Th1 differentiation), 57.6 ± 1 µM.
Consider `Nc1ccccc1C(=O)O` [Anthranilic acid, anthranilic acid], for which, in test [3], the “IC50 Th17 (IL-17 production)” value is recorded as “No inhibition” and the “inhibitory effect on IL-17 production” value is reported as “no inhibitory effect”. In addition, the “IC50 Th1 (IFNγ production)” value in test [4] is “No inhibition”.
Take `Nc1ccccc1C(=O)C[C@H](N)C(=O)O` [L-Kynurenine, L-kynurenine]: the values for the IC50 in test [1] (setting [5]), in test [1] (setting [6]) and in test [2] (setting [7]) were 100.8 ± 1 µM, 100.8 ± 1 µM and 154.4 ± 1.2 µM, respectively.
Take `O=C(O)c1cccnc1C(=O)O` [Quinolinic acid, quinolinic acid]: in test [3], the “IC50 Th17 (IL-17 production)” value is given as “No inhibition” and the “inhibitory effect on IL-17 production” value is listed as “no inhibitory effect”. The IC50 in test [4] (Mus musculus, 144 h) came out at 112 ± 1.4 µM.
